Laboratory results from patent US5843889A, “Glycopeptide antibiotic derivatives” (Eli Lilly and Company, priority 1997, dated 1998).
Values after ≈ are worked out from the molar mass of the structure shown.

What was measured:
Assay in all cases: MIC, standard broth micro-dilution assay
Type in all cases: cell-based
[1] = tested on: Entercoccus faecalis 2041
Description: (§1) The formula I compounds have in vitro and in vivo activity against Gram-positive pathogenic bacteria. The MIC's were determined using a standard broth micro-dilution assay.

Entercoccus faecalis 276 = tested on: Entercoccus faecalis 276
Description: as §1

[2] = tested on: Entercoccus gallinarum 245
Description: as §1

Row | SMILES | MIC [1] | MIC (Entercoccus faecalis 276) | MIC [2]
1 | CNC(CC(C)C)C(=O)NC1C(=O)NC(CC(N)=O)C(=O)NC2C(=O)NC3C(=O)NC(C(=O)NC(C(=O)O)c4cc(O)cc(O)c4-c4cc3ccc4O)C(OC3CC(C)(N)C(O)C(C)O3)c3ccc(c(Cl)c3)Oc3cc2cc(c3OC2OC(CO)C(O)C(O)C2OC2CC(C)(NCc3ccc(OC(=O)c4ccccc4)cc3)C(O)C(C)O2)Oc2ccc(cc2Cl)C1O (stereo not drawn) [Compound 150, 4-benzoyloxybenzyl] | ≤ 0.06 µg/mL | 1 µg/mL (≈ 0.555 µM) | 2 µg/mL (≈ 1.11 µM)
2 | CNC(CC(C)C)C(=O)NC1C(=O)NC(CC(N)=O)C(=O)NC2C(=O)NC3C(=O)NC(C(=O)NC(C(=O)O)c4cc(O)cc(O)c4-c4cc3ccc4O)C(OC3CC(C)(N)C(O)C(C)O3)c3ccc(c(Cl)c3)Oc3cc2cc(c3OC2OC(CO)C(O)C(O)C2OC2CC(C)(NCc3cncc(-c4ccccc4)c3)C(O)C(C)O2)Oc2ccc(cc2Cl)C1O (stereo not drawn) [Compound 151, 5-phenyl-3-pyridinylmethyl] | ≤ 0.06 µg/mL | ≤ 0.06 µg/mL | 4 µg/mL (≈ 2.27 µM)
3 | CNC(CC(C)C)C(=O)NC1C(=O)NC(CC(N)=O)C(=O)NC2C(=O)NC3C(=O)NC(C(=O)NC(C(=O)O)c4cc(O)cc(O)c4-c4cc3ccc4O)C(OC3CC(C)(N)C(O)C(C)O3)c3ccc(c(Cl)c3)Oc3cc2cc(c3OC2OC(CO)C(O)C(O)C2OC2CC(C)(NCc3cccc(OC4CCCCC4)c3)C(O)C(C)O2)Oc2ccc(cc2Cl)C1O (stereo not drawn) [Compound 153] | ≤ 0.06 µg/mL | 0.5 µg/mL (≈ 0.281 µM) | 1 µg/mL (≈ 0.562 µM)
4 | CNC(CC(C)C)C(=O)NC1C(=O)NC(CC(N)=O)C(=O)NC2C(=O)NC3C(=O)NC(C(=O)NC(C(=O)O)c4cc(O)cc(O)c4-c4cc3ccc4O)C(OC3CC(C)(N)C(O)C(C)O3)c3ccc(c(Cl)c3)Oc3cc2cc(c3OC2OC(CO)C(O)C(O)C2OC2CC(C)(NCc3c4c(cc5ccccc35)CCCC4)C(O)C(C)O2)Oc2ccc(cc2Cl)C1O (stereo not drawn) [Compound 156, 1,2,3,4,-tetrahydro-9-anthranylmethyl] | 0.5 µg/mL (≈ 0.28 µM) | 2 µg/mL (≈ 1.12 µM) | 2 µg/mL (≈ 1.12 µM)
5 | CNC(CC(C)C)C(=O)NC1C(=O)NC(CC(N)=O)C(=O)NC2C(=O)NC3C(=O)NC(C(=O)NC(C(=O)O)c4cc(O)cc(O)c4-c4cc3ccc4O)C(OC3CC(C)(N)C(O)C(C)O3)c3ccc(c(Cl)c3)Oc3cc2cc(c3OC2OC(CO)C(O)C(O)C2OC2CC(C)(NCc3ccc(OC(=O)C4CCCCC4)cc3)C(O)C(C)O2)Oc2ccc(cc2Cl)C1O (stereo not drawn) [Compound 157, 4-cyclohexanoyloxybenzyl] | ≤ 0.06 µg/mL | ≤ 0.06 µg/mL | 1 µg/mL (≈ 0.553 µM)
6 | CNC(CC(C)C)C(=O)NC1C(=O)NC(CC(N)=O)C(=O)NC2C(=O)NC3C(=O)NC(C(=O)NC(C(=O)O)c4cc(O)cc(O)c4-c4cc3ccc4O)C(OC3CC(C)(N)C(O)C(C)O3)c3ccc(c(Cl)c3)Oc3cc2cc(c3OC2OC(CO)C(O)C(O)C2OC2CC(C)(NCc3ccc(Nc4ccccc4)cc3)C(O)C(C)O2)Oc2ccc(cc2Cl)C1O (stereo not drawn) [Compound 160, 4-anilinobenzyl] | ≤ 0.06 µg/mL | 2 µg/mL (≈ 1.13 µM) | 8 µg/mL (≈ 4.51 µM)
7 | CNC(CC(C)C)C(=O)NC1C(=O)NC(CC(N)=O)C(=O)NC2C(=O)NC3C(=O)NC(C(=O)NC(C(=O)O)c4cc(O)cc(O)c4-c4cc3ccc4O)C(OC3CC(C)(N)C(O)C(C)O3)c3ccc(c(Cl)c3)Oc3cc2cc(c3OC2OC(CO)C(O)C(O)C2OC2CC(C)(NCc3cccc(OC(=O)c4ccccc4)c3)C(O)C(C)O2)Oc2ccc(cc2Cl)C1O (stereo not drawn) [Compound 162, 3-benzoyloxybenzyl] | ≤ 0.06 µg/mL | ≤ 0.06 µg/mL | 2 µg/mL (≈ 1.11 µM)
8 | CNC(CC(C)C)C(=O)NC1C(=O)NC(CC(N)=O)C(=O)NC2C(=O)NC3C(=O)NC(C(=O)NC(C(=O)O)c4cc(O)cc(O)c4-c4cc3ccc4O)C(OC3CC(C)(N)C(O)C(C)O3)c3ccc(c(Cl)c3)Oc3cc2cc(c3OC2OC(CO)C(O)C(O)C2OC2CC(C)(NCC3CCC(C4CCCCC4)CC3)C(O)C(C)O2)Oc2ccc(cc2Cl)C1O (stereo not drawn) [Compound 164, 4-[cyclohexyl]cyclohexylmethyl] | 1 µg/mL (≈ 0.565 µM) | 1 µg/mL (≈ 0.565 µM) | 2 µg/mL (≈ 1.13 µM)
9 | CNC(CC(C)C)C(=O)NC1C(=O)NC(CC(N)=O)C(=O)NC2C(=O)NC3C(=O)NC(C(=O)NC(C(=O)O)c4cc(O)cc(O)c4-c4cc3ccc4O)C(OC3CC(C)(N)C(O)C(C)O3)c3ccc(c(Cl)c3)Oc3cc2cc(c3OC2OC(CO)C(O)C(O)C2OC2CC(C)(NCc3cccc(OC(=O)C4CCCCC4)c3)C(O)C(C)O2)Oc2ccc(cc2Cl)C1O (stereo not drawn) [Compound 165, 3-cyclohexanoyloxybenzyl] | ≤ 0.06 µg/mL | 0.5 µg/mL (≈ 0.276 µM) | 4 µg/mL (≈ 2.21 µM)
10 | CNC(CC(C)C)C(=O)NC1C(=O)NC(CC(N)=O)C(=O)NC2C(=O)NC3C(=O)NC(C(=O)NC(C(=O)O)c4cc(O)cc(O)c4-c4cc3ccc4O)C(OC3CC(C)(N)C(O)C(C)O3)c3ccc(c(Cl)c3)Oc3cc2cc(c3OC2OC(CO)C(O)C(O)C2OC2CC(C)(NCc3ccccc3O)C(O)C(C)O2)Oc2ccc(cc2Cl)C1O (stereo not drawn) [Compound 169, 2-hydroxybenzyl] | ≤ 0.06 µg/mL | ≤ 0.06 µg/mL | 4 µg/mL (≈ 2.35 µM)
11 | CNC(CC(C)C)C(=O)NC1C(=O)NC(CC(N)=O)C(=O)NC2C(=O)NC3C(=O)NC(C(=O)NC(C(=O)O)c4cc(O)cc(O)c4-c4cc3ccc4O)C(OC3CC(C)(N)C(O)C(C)O3)c3ccc(c(Cl)c3)Oc3cc2cc(c3OC2OC(CO)C(O)C(O)C2OC2CC(C)(NCC3=CCC4CC3C4(C)C)C(O)C(C)O2)Oc2ccc(cc2Cl)C1O (stereo not drawn) [Compound 170] | ≤ 0.06 µg/mL | 0.5 µg/mL (≈ 0.29 µM) | 4 µg/mL (≈ 2.32 µM)
12 | CNC(CC(C)C)C(=O)NC1C(=O)NC(CC(N)=O)C(=O)NC2C(=O)NC3C(=O)NC(C(=O)NC(C(=O)O)c4cc(O)cc(O)c4-c4cc3ccc4O)C(OC3CC(C)(N)C(O)C(C)O3)c3ccc(c(Cl)c3)Oc3cc2cc(c3OC2OC(CO)C(O)C(O)C2OC2CC(C)(NCc3ccc(OS(=O)(=O)c4c(C)c(C)c(C)c(C)c4C)cc3)C(O)C(C)O2)Oc2ccc(cc2Cl)C1O (stereo not drawn) [Compound 173, 4-[[2,3,4,5,6-pentamethyl]phenylsulfonyloxy]benzyl] | 0.5 µg/mL (≈ 0.262 µM) | 2 µg/mL (≈ 1.05 µM) | 4 µg/mL (≈ 2.1 µM)
13 | CNC(CC(C)C)C(=O)NC1C(=O)NC(CC(N)=O)C(=O)NC2C(=O)NC3C(=O)NC(C(=O)NC(C(=O)O)c4cc(O)cc(O)c4-c4cc3ccc4O)C(OC3CC(C)(N)C(O)C(C)O3)c3ccc(c(Cl)c3)Oc3cc2cc(c3OC2OC(CO)C(O)C(O)C2OC2CC(C)(NCc3ccc(S(=O)(=O)N4CCCC4)cc3)C(O)C(C)O2)Oc2ccc(cc2Cl)C1O (stereo not drawn) [Compound 174, 4-[1-pyrrolidinosulfonyl]benzyl] | ≤ 0.06 µg/mL | ≤ 0.06 µg/mL | 16 µg/mL (≈ 8.81 µM)
14 | CNC(CC(C)C)C(=O)NC1C(=O)NC(CC(N)=O)C(=O)NC2C(=O)NC3C(=O)NC(C(=O)NC(C(=O)O)c4cc(O)cc(O)c4-c4cc3ccc4O)C(OC3CC(C)(N)C(O)C(C)O3)c3ccc(c(Cl)c3)Oc3cc2cc(c3OC2OC(CO)C(O)C(O)C2OC2CC(C)(NCCCc3ccc(OC)cc3)C(O)C(C)O2)Oc2ccc(cc2Cl)C1O (stereo not drawn) [Compound 175, 3-[4-methoxyphenyl]propyl] | ≤ 0.06 µg/mL | ≤ 0.06 µg/mL | 4 µg/mL (≈ 2.3 µM)
